# Test results as given in patent US20250223307A1, “MDM2/MDMX DOUBLE-TARGET INHIBITOR COMPOUND, PRODRUG, PHARMACEUTICAL COMPOSITION, AND PREPARATION METHOD THEREFOR AND USE THEREOF” (GLOBAL HEALTH DRUG DISCOVERY INSTITUTE, priority 2022, published 2025).
# Tests used:
# MDMX = biological target: T1, MDMX (Homo sapiens, UniProt O15151); test: HTRF test: inhibition of MDMX-p53 protein binding
# T1 sequence (O15151 2-134): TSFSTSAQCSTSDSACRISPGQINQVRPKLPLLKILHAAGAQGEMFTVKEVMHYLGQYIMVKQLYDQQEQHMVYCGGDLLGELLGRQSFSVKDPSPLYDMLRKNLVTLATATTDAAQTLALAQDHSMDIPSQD
# Solubility test = assay type: physicochemical; details: aqueous buffer, kinetic from dmso stock, phosphate buffer pH 7.4, 25° C.
# Description: Test Example 2: Solubility Test
# A test substance and a control drug progesterone were prepared with DMSO into a 10 mM stock solution
# 30 μL 10 mM stock solution prepared from the test substance and the control drug progesterone was taken and added into bottles in corresponding positions of 96-well sample plate in a specified order. Then, 970 μL of phosphate buffer with pH 7.4 was added into corresponding bottles of the sample plate. The experiments were two parallel experiments. A stirring rod was added into each bottle, and each bottle was covered with a polytetrafluoroethylene/silicon organic resin bottle plug. Then, a sample tray was placed in Eppendorf Thermomixer Comfort and vibrated at a rotating speed of 1100/min at 25° C. for 2 h. 2 h later, the bottle plug was removed, the stirring rod was taken away with a large magnet, and then samples were transferred to a filter plate from the sample plate. A vacuum pump generated a negative pressure to filter the samples. […]
# A sample injection plate was placed in a sample injection tray of an automatic sample injection, and samples were evaluated through liquid analysis. […]
# Analysis and quantification of the filter of the samples were completed by qualitatively and quantitatively analyzing the peak of a standard product with known concentration through liquid chromatography-mass spectrometry. […]
# MDM2 = MDM2 (Homo sapiens, UniProt Q00987); test: HTRF test: inhibition of MDM2-p53 protein binding
# [1] = tested on: Blood cancer cells RS4; 11; test: CellTiter Glo test: growth inhibition of cells; assay type: cell-based; details: Homo sapiens, 11 cells, 72 h, cell viability
# Chain of MDM2 (Q00987 2-138): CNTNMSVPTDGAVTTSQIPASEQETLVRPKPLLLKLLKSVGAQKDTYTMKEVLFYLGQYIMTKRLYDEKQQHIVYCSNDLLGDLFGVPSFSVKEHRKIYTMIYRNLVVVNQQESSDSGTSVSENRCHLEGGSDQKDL
SMILES,IC50 (MDMX),solubility at 2 h (Solubility test),IC50 (MDM2),IC50 [1]
"N#Cc1ccc(C(COP(=O)(O)O)N2C(=O)N/C(=C\c3c[nH]c4cc(Cl)ccc34)C2=O)cc1 (stereo not shown) [Compound 40, (Z)-2-(4-((6-chloro-1H-indol-3-yl)methylene)-2,5-dioxoimidazolidin-1-yl)-2-(4-cyanophenyl)ethyl dihydrophosphate]",> 100 nM,146 µg/mL,10 to 100 nM,–
"COc1c(Cl)ccc2c(/C=C3\NC(=O)N(Cc4ccc(F)c(F)c4)C3=O)c[nH]c12 [Compound 8, (Z)-5-((6-chloro-7-methoxyl-1H-indol-3-yl)methylene)-3-(3,4-difluorobenzyl)imidazolidine-2,4-dione]",10 to 100 nM,–,10 to 100 nM,1000 to 10000 nM
"O=C1N/C(=C\c2c[nH]c3cc(Cl)ccc23)C(=O)N1Cc1ccc(Cl)cc1 [Compound 2, (Z)-5-((6-chloro-1H-indol-3-yl)methylene)-3-(4-chlorobenzyl)imidazolidine-2,4-dione]",10 to 100 nM,–,10 to 100 nM,≤ 1000 nM
"O=C1N/C(=C\c2c[nH]c3c(F)c(Cl)ccc23)C(=O)N1C(CO)c1ccc(Cl)c(F)c1F (stereo not shown) [Compound 105, (Z)-3-(1-(4-chloro-2,3-difluorophenyl)-2-hydroxyethyl)-5-((6-chloro-7-fluoro-1H-indol-3-yl)methylene)imidazolidine-2,4-dione]",10 to 100 nM,–,10 to 100 nM,≤ 1000 nM
"O=C1N/C(=C\c2c[nH]c3c(F)c(Cl)ccc23)C(=O)N1C(CO)c1ccc(Cl)c(F)c1 (stereo not shown) [Compound 77, (Z)-3-(1-(4-chloro-3-fluorophenyl)-2-hydroxyethyl)-5-((6-chloro-7-fluoro-1H-indol-3-yl)methylene)imidazolidine-2,4-dione]",10 to 100 nM,–,10 to 100 nM,≤ 1000 nM
"O=C1N/C(=C\c2c[nH]c3c(F)c(Cl)ccc23)C(=O)N1C(CO)c1ccc(Cl)cc1 (stereo not shown) [Compound 69, (Z)-5-((6-chloro-7-fluoro-1H-indol-3-yl)methylene)-3-(1-(4-chlorophenyl)-2-hydroxyethyl)imidazolidine-2,4-dione]",10 to 100 nM,–,10 to 100 nM,≤ 1000 nM
"O=C1N/C(=C\c2c[nH]c3c(F)c(Cl)ccc23)C(=O)N1Cc1cc(F)c(Cl)c(F)c1 [Compound 106, (Z)-3-(4-chloro-3,5-difluorobenzyl)-5-((6-chloro-7-fluoro-1H-indol-3-yl)methylene)imidazolidine-2,4-dione]",10 to 100 nM,–,10 to 100 nM,≤ 1000 nM

# Second part, the molecule after the results:
IC50 (MDMX),solubility at 2 h (Solubility test),IC50 (MDM2),IC50 [1],SMILES
10 to 100 nM,0.075 µg/mL,< 10 nM,≤ 1000 nM,"N#Cc1ccc(C(CO)N2C(=O)N/C(=C\c3c[nH]c4cc(Cl)ccc34)C2=O)cc1 (stereo not shown) [Compound 38, (Z)-4-(1-(4-((6-chloro-1H-indol-3-yl)methylene)-2,5-dioxoimidazolidin-1-yl)-2-hydroxyethyl)benzonitrile]"
10 to 100 nM,–,10 to 100 nM,1000 to 10000 nM,"O=C1N/C(=C\c2c[nH]c3cc(Br)ccc23)C(=O)N1Cc1ccc(Cl)cc1 [Compound 5, (Z)-5-((6-bromo-1H-indol-3-yl)methylene)-3-(4-chlorobenzyl)imidazolidine-2,4-dione]"
10 to 100 nM,–,< 10 nM,≤ 1000 nM,"N#Cc1ccc(CN2C(=O)N/C(=C\c3c[nH]c4c(F)c(Cl)ccc34)C2=O)c(F)c1F [Compound 34, 4-{[(4Z)-4-[(6-chloro-7-fluoro-1H-indol-3-yl)methylene]-2,5-dioxoimidazolidin-1-yl]methyl}-2,3-difluorobenzonitrile]"
< 10 nM,–,< 10 nM,≤ 1000 nM,"O=C(NC(CO)CO)C(c1ccc(Cl)cc1)N1C(=O)N/C(=C\c2c[nH]c3c(F)c(Cl)ccc23)C1=O (stereo not shown) [Compound 28, (Z)-2-(4-((6-chloro-7-fluoro-1H-indol-3-yl)methylene)-2,5-dioxoimidazolidin-1-yl)-2-(4-chlorophenyl)-N-(1,3-dihydroxypropan-2-yl)acetamide]"
< 10 nM,–,< 10 nM,≤ 1000 nM,"N#Cc1ccc(C(CO)N2C(=O)N/C(=C\c3c[nH]c4c(F)c(Cl)ccc34)C2=O)cc1 (stereo not shown) [Compound 85, (Z)-4-(1-(4-((6-chloro-7-fluoro-1H-indol-3-yl)methylene)-2,5-dioxoimidazolidin-1-yl)-2-hydroxyethyl)benzonitrile]"
